Results: ChEMBL document CHEMBL4842357, “Discovery of Novel Apigenin-Piperazine Hybrids as Potent and Selective Poly (ADP-Ribose) Polymerase-1 (PARP-1) Inhibitors for the Treatment of Cancer” (J Med Chem, 2021)
Activity calls are given as the source filed them. The rule behind the calls is not given here.

Assays:
[1] = system: SK-OV-3; experiment: Antitumor activity against human SK-OV-3 cells xenografted in BALB/c nude mouse assessed as decrease in tumor volume at 50 mg/kg, po administered once daily measured for 28 days; type: functional, organism-based; details: time 28.0 day
[2] = system: SK-OV-3; experiment: Antitumor activity against human SK-OV-3 cells xenografted in BALB/c nude mouse assessed as relative tumor volume at 50 mg/kg, po administered once daily for 12 days; type: functional; details: time 12 day
[3] = target: T1, Poly [ADP-ribose] polymerase 1 (Homo sapiens, UniProt P09874); experiment: Inhibition of PARP-1 in human SK-OV-3 cells assessed as decrease in MCM2 protein expression level at 0.1 to 10 uM by Western blot analysis; type: cell-based; details: dose 0.1-10 µM
T1 sequence (P09874 whole entry): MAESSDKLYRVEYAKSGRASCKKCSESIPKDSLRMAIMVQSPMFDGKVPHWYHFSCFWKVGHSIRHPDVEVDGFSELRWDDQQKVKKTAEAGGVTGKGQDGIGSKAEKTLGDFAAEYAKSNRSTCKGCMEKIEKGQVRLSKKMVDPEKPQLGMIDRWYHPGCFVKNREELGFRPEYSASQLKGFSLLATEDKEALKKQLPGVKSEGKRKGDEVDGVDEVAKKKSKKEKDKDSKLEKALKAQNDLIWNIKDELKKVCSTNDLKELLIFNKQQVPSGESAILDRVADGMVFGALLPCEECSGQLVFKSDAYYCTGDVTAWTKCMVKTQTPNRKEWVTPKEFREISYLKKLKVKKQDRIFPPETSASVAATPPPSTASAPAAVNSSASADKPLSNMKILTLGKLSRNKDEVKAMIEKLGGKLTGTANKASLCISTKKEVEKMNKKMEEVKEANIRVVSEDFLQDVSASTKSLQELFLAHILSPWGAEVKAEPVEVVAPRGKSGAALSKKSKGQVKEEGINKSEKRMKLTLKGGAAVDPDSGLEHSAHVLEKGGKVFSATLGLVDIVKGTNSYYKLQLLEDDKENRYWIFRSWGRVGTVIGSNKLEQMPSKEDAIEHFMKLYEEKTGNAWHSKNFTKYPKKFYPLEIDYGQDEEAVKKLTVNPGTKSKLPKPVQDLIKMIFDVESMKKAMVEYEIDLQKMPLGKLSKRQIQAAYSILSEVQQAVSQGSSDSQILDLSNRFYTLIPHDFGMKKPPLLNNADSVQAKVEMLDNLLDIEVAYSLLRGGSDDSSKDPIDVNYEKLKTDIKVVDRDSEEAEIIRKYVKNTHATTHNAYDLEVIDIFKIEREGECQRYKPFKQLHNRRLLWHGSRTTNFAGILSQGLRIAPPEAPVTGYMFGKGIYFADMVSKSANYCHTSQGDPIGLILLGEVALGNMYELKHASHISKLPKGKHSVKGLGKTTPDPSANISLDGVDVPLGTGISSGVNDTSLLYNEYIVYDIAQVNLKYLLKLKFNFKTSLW

[4] = species: Homo sapiens; experiment: Selectivity index, ratio of IC50 for inhibition of recombinant human full-length PARP-2 to IC50 for inhibition of recombinant human full-length PARP-1
[5] = target: T1, Poly [ADP-ribose] polymerase 1; experiment: Binding affinity to PARP-1 in human SK-OV-3 cells assessed as increase in thermal stabilization of PARP-1 at 1 uM after 3 hrs by CETSA; type: cell-based
[6] = target: T1, Poly [ADP-ribose] polymerase 1; experiment: Inhibition of PARP-1 in human SK-OV-3 cells assessed as induction of DNA damage by measuring increase in gamma H2AX expression by immunofluorescence assay; type: cell-based
[7] = system: SK-OV-3; experiment: Cytotoxicity against human SK-OV-3 cells transfected with PARP-1 siRNA assessed as reduction in cell viability at 0.1 to 10 uM after 48 hrs by MTT assay; type: functional, cell-based; details: dose 0.1-10 µM
[8] = system: SK-OV-3; experiment: Cytotoxicity against human BRCA-1 deficient SK-OV-3 cells assessed as reduction in cell viability at 0.1 to 10 uM incubated for 48 hrs by MTT assay; type: functional, cell-based; details: dose 0.1-10 µM
[9] = target: T1, Poly [ADP-ribose] polymerase 1; experiment: Inhibition of PARP-1 in human SK-OV-3 cells assessed as decrease in MCM5 protein expression level at 0.1 to 10 uM by Western blot analysis; type: cell-based; details: dose 0.1-10 µM
[10] = target: T2, Poly [ADP-ribose] polymerase 2 (Homo sapiens, UniProt Q9UGN5); experiment: Binding affinity to PARP-2 in human SK-OV-3 cells assessed as thermal stabilization after 3 hrs by ITDRF-CETSA; type: cell-based; details: dose 0.1-10 µM
T2 sequence (Q9UGN5 whole entry): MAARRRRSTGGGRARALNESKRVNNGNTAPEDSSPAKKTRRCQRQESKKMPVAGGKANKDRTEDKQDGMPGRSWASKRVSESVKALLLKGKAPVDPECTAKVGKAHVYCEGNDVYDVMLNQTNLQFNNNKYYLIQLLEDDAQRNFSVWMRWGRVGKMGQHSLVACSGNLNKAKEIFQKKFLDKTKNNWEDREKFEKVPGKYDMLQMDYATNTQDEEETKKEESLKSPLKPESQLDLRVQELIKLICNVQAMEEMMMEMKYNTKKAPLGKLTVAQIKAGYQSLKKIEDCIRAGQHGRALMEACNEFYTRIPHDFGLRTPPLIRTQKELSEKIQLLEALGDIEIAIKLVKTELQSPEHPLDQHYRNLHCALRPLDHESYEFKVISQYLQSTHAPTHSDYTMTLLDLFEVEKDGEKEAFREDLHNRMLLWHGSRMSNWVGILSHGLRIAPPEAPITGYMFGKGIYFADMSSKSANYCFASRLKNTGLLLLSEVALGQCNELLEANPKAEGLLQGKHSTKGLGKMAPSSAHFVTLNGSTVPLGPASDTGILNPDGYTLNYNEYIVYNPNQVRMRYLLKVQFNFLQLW

[11] = system: SK-OV-3; experiment: Antitumor activity against human SK-OV-3 cells xenografted in BALB/c nude mouse assessed as increase in gamma-H2AX expression in tumor at 25 to 50 mg/kg, po measured after 28 days by Western blot analysis; type: functional, organism-based; details: dose 25-50 mg/kg, time 28.0 day
[12] = target: T1, Poly [ADP-ribose] polymerase 1; experiment: Inhibition of PARP-1 in human SK-OV-3 cells assessed as decrease in H2O2-induced PAR level preincubated for 4 hrs followed by H2O2 addition by DAPI staining based inverted fluorescence microscopic analysis; type: cell-based
[13] = system: A549; experiment: Cytotoxicity against human A549 cells assessed as induction of CBP cytotoxicity incubated for 48 hrs in presence of CBP by MTT assay; type: functional, cell-based; details: dose 0.1-10 µM
[14] = system: SK-OV-3; experiment: Antitumor activity against human SK-OV-3 cells xenografted in BALB/c nude mouse assessed as decrease in PAR level at 25 to 50 mg/kg, po measured after 28 days by immunohistochemistry analysis; type: functional, organism-based; details: dose 25-50 mg/kg, time 28.0 day
[15] = target: T1, Poly [ADP-ribose] polymerase 1; experiment: Inhibition of PARP-1 in human SK-OV-3 cells assessed as decrease in MCM7 protein expression level at 0.1 to 10 uM by Western blot analysis; type: cell-based; details: dose 0.1-10 µM
[16] = system: A549; experiment: Cytotoxicity against human A549 cells transfected with PARP-1 siRNA assessed as sensitization of CBP at 0.1 to 10 uM incubated for 48 hrs in presence of CBP by MTT assay; type: functional, cell-based; details: dose 0.1-10 µM
[17] = system: SK-OV-3; experiment: Antitumor activity against human SK-OV-3 cells xenografted in BALB/c nude mouse assessed as increase in gamma-H2AX expression in tumor at 25 to 50 mg/kg, po measured after 28 days by immunohistochemistry analysis; type: functional, organism-based; details: dose 25-50 mg/kg, time 28.0 day
[18] = system: A549; experiment: Antitumor activity against human A549 cells xenografted in BALB/c nude mouse assessed as induction of CBP mediated tumor growth inhibition at 50 mg/kg, po administered once daily for 12 days in presence of CBP; type: functional, organism-based; details: time 12.0 day
[19] = target: T1, Poly [ADP-ribose] polymerase 1; experiment: Inhibition of PARP-1 in human SK-OV-3 cells assessed as decrease in MCM6 protein expression level at 0.1 to 10 uM by Western blot analysis; type: cell-based; details: dose 0.1-10 µM
[20] = target: T2, Poly [ADP-ribose] polymerase 2; experiment: Binding affinity to PARP-2 in human SK-OV-3 cells assessed as increase in thermal stabilization of PARP-2 at 1 uM after 3 hrs by CETSA; type: cell-based
[21] = target: T1, Poly [ADP-ribose] polymerase 1; experiment: Binding affinity to PARP-1 in human SK-OV-3 cells assessed as thermal stabilization after 3 hrs by ITDRF-CETSA; type: cell-based; details: dose 0.1-10 µM
[22] = target: T1, Poly [ADP-ribose] polymerase 1; experiment: Inhibition of PARP-1 in human SK-OV-3 cells assessed as decrease in H2O2-induced PAR level at 0.1 to 10 uM preincubated for 4 hrs followed by H2O2 addition by Western blot analysis; type: cell-based; details: dose 0.1-10 µM
[23] = system: SK-OV-3; experiment: Antitumor activity against human SK-OV-3 cells xenografted in BALB/c nude mouse assessed as decrease in PAR level at 25 to 50 mg/kg, po measured after 28 days by Western blot analysis; type: functional, organism-based; details: dose 25-50 mg/kg, time 28.0 day
[24] = system: A549; experiment: Antitumor activity against human A549 cells xenografted in BALB/c nude mouse assessed as tumor growth inhibition at 50 mg/kg, po administered once daily for 12 days; type: functional, organism-based; details: time 12.0 day
[25] = target: T1, Poly [ADP-ribose] polymerase 1; experiment: Inhibition of PARP-1 in human SK-OV-3 cells assessed as decrease in MCM4 protein expression level at 0.1 to 10 uM by Western blot analysis; type: cell-based; details: dose 0.1-10 µM
[26] = system: A549; experiment: Cytotoxicity against human A549 cells assessed as reduction in cell viability at 0.1 to 10 uM incubated for 48 hrs by MTT assay; type: functional, cell-based; details: dose 0.1-10 µM
[27] = target: T1, Poly [ADP-ribose] polymerase 1; experiment: Inhibition of PARP-1 in human SK-OV-3 cells assessed as induction of DNA damage by measuring increase in gamma H2AX expression at 0.1 to 10 uM by Western blot analysis; type: cell-based; details: dose 0.1-10 µM
[28] = target: T1, Poly [ADP-ribose] polymerase 1; experiment: Inhibition of PARP-1 in human SK-OV-3 cells assessed as decrease in MCM3 protein expression level at 0.1 to 10 uM by Western blot analysis; type: cell-based; details: dose 0.1-10 µM
[29] = Acute toxicity in ICR mouse assessed as change in body weight at 1000 mg/kg, po administered only once at day 1 and measured every two days for 14 days; type: organism-based; details: in vivo, 336 h, time 14 day
[30] = Renal toxicity in ICR mouse assessed as effect on BUN level at 1000 mg/kg, po administered only once at day 1 and measured every two days for 14 days (reference value: 8.9 +/- 0.9 mmol/L); type: organism-based; details: in vivo, 336 h, time 14 day
[31] = Acute toxicity in ICR mouse assessed as effect on spleen at 1000 mg/kg, po administered only once at day 1 and measured every two days for 14 days; type: organism-based; details: in vivo, 336 h, time 14 day
[32] = target: T2, Poly [ADP-ribose] polymerase 2; experiment: Inhibition of recombinant human full-length PARP-2 using biotinylated substrate
[33] = Acute toxicity in ICR mouse assessed as change in blood routine at 1000 mg/kg, po administered only once at day 1 and measured every two days for 14 days; type: organism-based; details: in vivo, 336 h, time 14 day
[34] = target: T1, Poly [ADP-ribose] polymerase 1; experiment: Inhibition of recombinant human full-length PARP-1 using biotinylated substrate
[35] = Acute toxicity in ICR mouse assessed as effect on kidney at 1000 mg/kg, po administered only once at day 1 and measured every two days for 14 days; type: organism-based; details: in vivo, 336 h, time 14 day
[36] = Hepatotoxicity in ICR mouse assessed as effect on AST level at 1000 mg/kg, po administered only once at day 1 and measured every two days for 14 days (reference value: 61.5 +/- 3.7 U/L); type: toxicity, organism-based; details: in vivo, 336 h, time 14 day
[37] = Hepatotoxicity in ICR mouse assessed as effect on ALT level at 1000 mg/kg, po administered only once at day 1 and measured every two days for 14 days (reference value: 28.6 +/- 6.9 U/L); type: toxicity, organism-based; details: in vivo, 336 h, time 14 day

**Q.** Which results are given for `O=C(c1cc(Cc2n[nH]c(=O)c3ccccc23)ccc1F)N1CCN(C(=O)C2CC2)CC1` [OLAPARIB]?
**A.** Activity [1]: Active; Activity [2]: 2.12

**Q.** Which results are given for `O=c1cc(-c2ccc(O)cc2)oc2c(CN3CCN(Cc4cccs4)CC3)c(O)cc(O)c12`?
**A.** inhibition [3]: Active; Ratio IC50 [4]: 61.2; Activity [5]: Active; inhibition [6]: Active; Activity [7]: inactive; Activity [8]: Active; inhibition [9]: Active; Activity [10]: Dose-Dependent Effect; Activity [11]: Active; inhibition [12]: Active; Activity [13]: Dose-Dependent Effect; Activity [14]: Active; inhibition [15]: Active; Activity [16]: inactive; Activity [17]: Active; Activity [18]: Active; inhibition [19]: Active; Activity [20]: Active; Activity [21]: Dose-Dependent Effect; inhibition [22]: Active; Activity [23]: Active; Activity [1]: Active; Activity [24]: inactive; inhibition [25]: Active; Activity [26]: inactive; inhibition [27]: Active; inhibition [28]: Active

**Q.** With `O=C(c1cccs1)N1CCN(Cc2c(O)cc(O)c3c(=O)cc(-c4ccc(O)cc4)oc23)CC1` as the compound, how does the Ratio IC50 [4] read?
**A.** Its Ratio IC50 is 69.6.

**Q.** What about the Activity [29] of the same compound?
**A.** Its Activity is “Non-Toxic”.

**Q.** What about the Activity [30] of the same compound?
**A.** The Activity was 10.3 mmol/L.

**Q.** What about the Activity [31] of the same compound?
**A.** The Activity was “Toxic”.

**Q.** And the Activity [8]?
**A.** Its Activity is “Active”.

**Q.** And the IC50 [32]?
**A.** The IC50 was 1100 nM.

**Q.** What about the Activity [13] of the same compound?
**A.** The Activity was “Dose-Dependent Effect”.

**Q.** And the Activity [33]?
**A.** Its Activity is “Non-Toxic”.

**Q.** What about the IC50 [34] of the same compound?
**A.** Its IC50 is 15.8 nM.

**Q.** What about the Activity [35] of the same compound?
**A.** The Activity was “Toxic”.

**Q.** What about the Activity [36] of the same compound?
**A.** Its Activity is 77.6 U/L.

**Q.** And the Activity [26]?
**A.** The Activity was “inactive”.

**Q.** And the Activity [37]?
**A.** Its Activity is 29.6 U/L.
